Reference: patent US20240246964A1 (Arbutus Biopharma Corporation, priority 2021, published 2024)

Biological target: human PD-L1 (Homo sapiens (Human), UniProt Q9NZQ7)
Experiment: T cell activation luciferase reporter cell culture system (T Cell Activation Assay)
Assay type: cell-based
Settings: luciferase reporter assay; PD-L1 aAPC/CHO-K1 cells with PD-1 effector Jurkat T cells

Chain of human PD-L1 (Q9NZQ7 19-290): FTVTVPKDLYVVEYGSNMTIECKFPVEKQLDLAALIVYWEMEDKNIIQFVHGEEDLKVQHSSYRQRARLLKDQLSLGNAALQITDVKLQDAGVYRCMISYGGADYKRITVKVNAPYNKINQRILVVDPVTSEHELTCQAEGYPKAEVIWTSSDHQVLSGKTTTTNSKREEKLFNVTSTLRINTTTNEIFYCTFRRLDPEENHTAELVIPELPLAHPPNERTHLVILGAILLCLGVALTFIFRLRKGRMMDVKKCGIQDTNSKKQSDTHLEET

| SMILES | EC50 [nM] |
| --- | --- |
| COc1nc(-c2cccc(-c3ccnc(-c4cc5c(=O)n(C)c(CN6CC(C)(O)C6)nn5c4)c3Cl)c2Cl)ccc1CNC(C)C [Example 233, 6-(3-Chloro-4-(2-chloro-3-(5-((isopropylamino)methyl)-6-methoxypyridin-2-yl)phenyl)pyridin-2-yl)-2-((3-hydroxy-3-methylazetidin-1-yl)methyl)-3-methylpyrrolo[2,1-f][1,2,4]triazin-4(3H)-one] | ≥ 10000 |
| COc1nc(-c2cccc(-c3ccnc(-c4cc5c(=O)n(C)c(CN6CC(C)(O)C6)nn5c4)c3Cl)c2Cl)ccc1CN[C@H]1CC[C@H](O)CC1 [Example 234, 6-(3-Chloro-4-(2-chloro-3-(5-((((1r,4r)-4-hydroxycyclohexyl)amino)methyl)-6-methoxypyridin-2-yl)phenyl)pyridin-2-yl)-2-((3-hydroxy-3-methylazetidin-1-yl)methyl)-3-methylpyrrolo[2,1-f][1,2,4]triazin-4(3H)-one] | 143 |
| COc1cc(-c2nccc(-c3cccc(-c4ccc(CNC5CCN(C(C)=O)CC5)c(OC)n4)c3Cl)c2Cl)ccc1CN1CCC(C)(N)CC1 [Example 406, 1-(4-(((6-(3-(2-(4-((4-Amino-4-methylpiperidin-1-yl)methyl)-3-methoxyphenyl)-3-chloropyridin-4-yl)-2-chlorophenyl)-2-methoxypyridin-3-yl)-methyl)-amino)piperidin-1-yl)ethan-1-one] | 62.7 |
| COc1cc(-c2nccc(-c3cccc(-c4ccc(CNC5CC(=O)NC(=O)C5)c(OC)n4)c3Cl)c2Cl)ccc1CNC1CC(=O)NC(=O)C1 [Example 359, 4-(((6-(2-Chloro-3-(3-chloro-2-(4-(((2,6-dioxopiperidin-4-yl)amino)methyl)-3-methoxyphenyl)pyridin-4-yl)phenyl)-2-methoxypyridin-3-yl)methyl)amino)piperidine-2,6-dione] | 40.4 |
| COc1cc(-c2nccc(-c3cccc(-c4ccc(CNC5CCN(C(C)=O)CC5)c(OC)n4)c3Cl)c2Cl)ccc1CN[C@H]1CC[C@H](O)CC1 [Example 360, 1-(4-(((6-(2-Chloro-3-(3-chloro-2-(4-((((1r,4r)-4-hydroxycyclohexyl)amino)methyl)-3-methoxyphenyl)pyridin-4-yl)phenyl)-2-methoxypyridin-3-yl)methyl)amino)piperidin-1-yl)ethan-1-one] | 31 |
| COc1nc(-c2cccc(-c3ccnc(-c4ccc5c(c4)N(C)CCNC5)c3Cl)c2Cl)ccc1CNC[C@@H]1CCC(=O)N1 [Cmpd 3, (S)-5-((((6-(2-chloro-3-(3-chloro-2-(1-methyl-2,3,4,5-tetrahydro-1H-benzo[e][1,4]diazepin-8-yl)pyridin-4-yl)phenyl)-2-methoxypyridin-3-yl)methyl)amino)methyl)pyrrolidin-2-one] | 42.9 |
| COc1cc(-c2nccc(-c3cccc(-c4ccc(CN5CCC(NC(C)=O)CC5)c(OC)n4)c3Cl)c2Cl)ccc1CNC1CCOCC1 [Example 432, N-(1-((6-(2-Chloro-3-(3-chloro-2-(3-methoxy-4-(((tetrahydro-2H-pyran-4-yl)amino)methyl)phenyl)pyridin-4-yl)phenyl)-2-methoxypyridin-3-yl)methyl)piperidin-4-yl)acetamide] | 52.1 |
| COc1cc(-c2nccc(-c3cccc(-c4ccc(CNC5CCN(C(C)=O)CC5)c(OC)n4)c3Cl)c2Cl)ccc1CNC[C@H]1CNC(=O)C1 [Example 407, (S)-4-(((4-(4-(3-(5-(((1-Acetylpiperidin-4-yl)amino)methyl)-6-methoxypyridin-2-yl)-2-chlorophenyl)-3-chloropyridin-2-yl)-2-methoxybenzyl)amino)methyl)pyrrolidin-2-one] | 20 |
| COc1cc(-c2nccc(-c3cccc(-c4ccc(CN5CC6(CNC(=O)C6)C5)c(OC)n4)c3Cl)c2Cl)ccc1CNC1CCOCC1 [Example 495, 2-((6-(2-Chloro-3-(3-chloro-2-(3-methoxy-4-(((tetrahydro-2H-pyran-4-yl)amino)methyl)phenyl)pyridin-4-yl)phenyl)-2-methoxypyridin-3-yl)methyl)-2,6-diazaspiro[3.4]octan-7-one] | 22.8 |
| COc1cc(-c2nccc(-c3cccc(-c4ccc(CNC5CCN(C(C)=O)CC5)c(OC)n4)c3Cl)c2Cl)ccc1CN1CC2(C1)CN(C(C)=O)C2 [Example 482, 1-(4-(((6-(3-(2-(4-((6-acetyl-2,6-diazaspiro[3.3]heptan-2-yl)methyl)-3-methoxyphenyl)-3-chloropyridin-4-yl)-2-chlorophenyl)-2-methoxypyridin-3-yl)methyl)amino)piperidin-1-yl)ethan-1-one] | 20.3 |
| COc1cc(-c2nccc(-c3cccc(-c4ccc(CN5CC6(CNC(=O)C6)C5)c(OC)n4)c3Cl)c2C)ccc1CN1CC2(CNC(=O)C2)C1 [Example 368, 2-((6-(2-Chloro-3-(2-(3-methoxy-4-((7-oxo-2,6-diazaspiro[3.4]octan-2-yl)methyl)phenyl)-3-methylpyridin-4-yl)phenyl)-2-methoxypyridin-3-yl)methyl)-2,6-diazaspiro[3.4]octan-7-one] | 37.4 |
| COc1nc(-c2cccc(-c3ccnc(-c4ccc5c(c4)S(=O)(=O)CCN(C)C5)c3Cl)c2Cl)ccc1CNC[C@@H]1CCC(=O)N1 [Example 561, (S)-5-((((6-(2-Chloro-3-(3-chloro-2-(4-methyl-1,1-dioxido-2,3,4,5-tetrahydrobenzo[f][1,4]thiazepin-8-yl)pyridin-4-yl)phenyl)-2-methoxypyridin-3-yl)methyl)amino)methyl)pyrrolidin-2-one] | ≥ 10000 |
| COc1cc(-c2nccc(-c3cccc(-c4ccc(CNC5CCN(C(C)=O)CC5)c(OC)n4)c3Cl)c2Cl)ccc1CNC1CCN(C(C)=O)CC1 [Cmpd 139, 1-(4-(((6-(3-(2-(4-(((1-acetylpiperidin-4-yl)amino)methyl)-3-methoxyphenyl)-3-chloropyridin-4-yl)-2-chlorophenyl)-2-methoxypyridin-3-yl)methyl)amino)piperidin-1-yl)ethan-1-one] | 12.9 |
| COc1cc(-c2nccc(-c3cccc(-c4ccc(CNC5CCOCC5)c(OC)n4)c3Cl)c2C#N)ccc1CNC1CCOCC1 [Example 434, 4-(2-Chloro-3-(6-methoxy-5-(((tetrahydro-2H-pyran-4-yl)amino)methyl)pyridin-2-yl)phenyl)-2-(3-methoxy-4-(((tetrahydro-2H-pyran-4-yl)amino)methyl)phenyl)nicotinonitrile] | 37.8 |
| COc1cc(-c2nccc(-c3cccc(-c4ccc(CNC5CCN(C(=O)C(C)C)CC5)c(OC)n4)c3Cl)c2Cl)cc(F)c1CNC1CCN(C(=O)C(C)C)CC1 [Example 347, 1-(4-(((6-(2-Chloro-3-(3-chloro-2-(3-fluoro-4-(((1-isobutyrylpiperidin-4-yl)amino)methyl)-5-methoxyphenyl)pyridin-4-yl)phenyl)-2-methoxypyridin-3-yl)methyl)amino)piperidin-1-yl)-2-methylpropan-1-one] | 69.6 |
| COc1nc(-c2cccc(-c3ccnc(-c4ccc5c(c4)N(C)CCNC5)c3Cl)c2Cl)ccc1CNCC(C)NC(C)=O (stereo not shown) [Cmpd 5, N-(1-(((6-(2-chloro-3-(3-chloro-2-(1-methyl-2,3,4,5-tetrahydro-1H-benzo[e][1,4]diazepin-8-yl)pyridin-4-yl)phenyl)-2-methoxypyridin-3-yl)methyl)amino)propan-2-yl)acetamide] | 172 |
| COCC(=O)N1CCC(NCc2ccc(-c3cccc(-c4ccnc(-c5ccc(CNC6CCN(C(C)=O)CC6)c(OC)c5)c4Cl)c3Cl)nc2OC)CC1 [Example 481, 1-(4-(((6-(3-(2-(4-(((1-Acetylpiperidin-4-yl)amino)methyl)-3-methoxyphenyl)-3-chloropyridin-4-yl)-2-chlorophenyl)-2-methoxypyridin-3-yl)methyl)amino)piperidin-1-yl)-2-methoxyethan-1-one] | 15.9 |
| COc1cc(-c2ncnc(-c3cccc(-c4ccc(CN5CC6(C5)CN(C(C)=O)C6)c(OC)n4)c3Cl)c2Cl)ccc1CN1CC2(C1)CN(C(C)=O)C2 [Example 589, 1-(6-((6-(3-(6-(4-((6-Acetyl-2,6-diazaspiro[3.3]heptan-2-yl)methyl)-3-methoxyphenyl)-5-chloropyrimidin-4-yl)-2-chlorophenyl)-2-methoxypyridin-3-yl)methyl)-2,6-diazaspiro[3.3]heptan-2-yl)ethan-1-one] | ≥ 10000 |
| COc1cc(-c2nccc(-c3cccc(-c4ccc(CNC5CCS(=O)(=O)CC5)c(OC)n4)c3Cl)c2Cl)cc(F)c1CNC1CCS(=O)(=O)CC1 [Example 349, 4-(((6-(2-Chloro-3-(3-chloro-2-(4-(((1,1-dioxidotetrahydro-2H-thiopyran-4-yl)amino)methyl)-3-fluoro-5-methoxyphenyl)pyridin-4-yl)phenyl)-2-methoxypyridin-3-yl)methyl)amino)tetrahydro-2H-thiopyran 1,1-dioxide] | 38.3 |
| COc1cc(-c2nccc(-c3cccc(-c4ccc(CNC[C@@H]5CCC(=O)N5)c(OC)n4)c3Cl)c2Cl)cc2c1CN(C[C@@H](C)O)CC2 [Cmpd 27, (S)-5-((((6-(2-chloro-3-(3-chloro-2-(2-((R)-2-hydroxypropyl)-8-methoxy-1,2,3,4-tetrahydroisoquinolin-6-yl)pyridin-4-yl)phenyl)-2-methoxypyridin-3-yl)methyl)amino)methyl)pyrrolidin-2-one] | 25.1 |
| COc1cc(-c2nccc(-c3cccc(-c4ccc(CNC[C@@H]5CCC(=O)N5)c(OC)n4)c3Cl)c2Cl)cc(F)c1CNC(C)C [Cmpd 82, (S)-5-((((6-(2-chloro-3-(3-chloro-2-(3-fluoro-4-((isopropylamino)methyl)-5-methoxyphenyl)pyridin-4-yl)phenyl)-2-methoxypyridin-3-yl)methyl)amino)methyl)pyrrolidin-2-one] | 60.5 |
| COc1cc(-c2nccc(-c3cccc(-c4ccc(CNC5CCN(C(=O)C6CCCCC6)CC5)c(OC)n4)c3Cl)c2Cl)ccc1CNC1CCN(C(=O)C2CCCCC2)CC1 [Example 456, (4-(((6-(2-Chloro-3-(3-chloro-2-(4-(((1-(cyclohexanecarbonyl)piperidin-4-yl)amino)methyl)-3-methoxyphenyl)pyridin-4-yl)phenyl)-2-methoxypyridin-3-yl)methyl)amino)piperidin-1-yl)(cyclohexyl)methanone] | 291 |
